{"source": "patent US20070149611A1", "about": "“CB-DELTA8-THC COMPOSITION” (priority 2003, published 2007)", "origin": "cited, not measured here", "key": {"[1]": {"conditions": "CBD alone"}, "[2]": {"conditions": "Δ^9-THC is easily oxidized to cannabinol"}, "[3]": {"conditions": "relative to Δ^9-THC"}, "[4]": {"conditions": "more effective than Δ^9-THC; Abrahamov et al, 1995"}}, "data": [{"smiles": "C=C(C)[C@@H]1CCC(C)=C[C@H]1c1c(O)cc(CCCCC)cc1O", "note": "[CBD, cannabidiol]", "values": [{"measurement": "effects when administered on its own", "setting": "[1]", "value": "no noticeable effects"}]}, {"smiles": "CCCCCc1cc(O)c2c(c1)OC(C)(C)[C@@H]1CC=C(C)C[C@@H]21", "note": "[Δ^8-THC, Δ^8-tetrahydrocannabinol]", "values": [{"measurement": "stability towards oxidation to cannabinol", "setting": "[2]", "value": "very stable"}, {"measurement": "psychometric potency, less potent than Δ^9-THC (generally considered)", "setting": "[3]", "value": 50, "unit": "%"}, {"measurement": "psychometric potency, times less potent than Δ^9-THC (in some cases)", "setting": "[3]", "value": "3-10 times"}, {"measurement": "anti-emetic effectiveness relative to Δ^9-THC", "setting": "[4]", "value": 200, "unit": "%"}]}]}
